Measured values from patent US20120129842A1, “BISTHIAZOLE INHIBITORS OF PRO-MATRIX METALLOPROTEINASE ACTIVATION” (priority 2010, published 2012).
pKd: −log10 of the molar value.

Legend:
proMMP9 = biological target: T1, proMMP9 (Homo sapiens, UniProt P14780); assay: Activation of proMMP9 by human fetal lung fibroblast (HFL-1) cultures (Western blot); format: cell-based
T1 construct: host or cells: HFL-1 human fetal lung fibroblasts, TNFα plus human neutrophil elastase
Experimental: Activation of proMMP9 by Human Fetal Lung Fibroblast Cultures Example 64 was assessed additionally for ability to block the maturation of proMMP9 to active MMP9 in cultures of human fetal lung fibroblasts (HFL-1, American Type Culture Collection #CCL-153). Unlike rat synoviocytes, HFL-1 cells were unable to process proMMP9 to the active form without addition of neutrophil elastase. […] Rather, the function of elastase in this assay may be to inactivate tissue inhibitors of matrix metalloproteinases (TIMPs) that repress endogenous pathways of MMP9 activation (Am J Respir Grit Care Med; 1999; 159:1138-46).
HLF-1 were maintained in monolayer culture in DMEM with 10% FCS and were used between passage numbers 5-15. HLF-1 were embedded in collagen gels as described for rat SCW synoviocytes (vida supra). Half mL gels containing 0.4 million cells were dislodged into wells of 12 well Costar plates containing 1 mL/well of DMEM adjusted to contain 0.05% BSA and 100 ng/mL human TNFα (R&D Systems Cat #210-TA/CF). After overnight culture (37° C. and 5% CO2) wells were adjusted to contain an additional 0.5 mL of DMEM containing 0.05% BSA and with or without 13.2 μM Example 64 (final concentration was 3.3 μM Example 64). Next, cultures were adjusted to contain 30 nM human elastase (Innovative Research). The plates were cultured an additional 72 hrs, at which time MMP9 secreted into the conditioned media was bound to gelatin-sepharose and evaluated by Western blot analysis as described for the rat synoviocyte cultures (vida supra). mAb-51/82 detected three forms of MMP9 in HFL-1 cultures.
A second experiment was performed to determine if the 80 kD form was mature active MMP9 and to determine the potency of Example 64 as an inhibitor of MMP9 maturation in this assay. HFL-1 cells embedded in collagen gels were cultured as described above in the presence of TNFα overnight and the cultures were then adjusted to contain 30 nM elastase and graded concentrations of Example 64 for an additional 72 hrs at which time MMP9 secreted into the conditioned media was bound to gelatin-sepharose and evaluated by Western blot analysis for active MMP9 using pAb-1246 raised against the N-terminal neoepitope of active MMP9 (Table 5). In the absence of Example 64, pAb-1246 readily detected MMP9 with an electrophoretic mobility of approximately 80 kD. […] Inhibition occurred over a dose range with an IC50 of approximately 0.3 μM Example 64.

[1] = biological target: T2, proMMP9(67-444;ΔFnII) (SEQ ID NO:5) (Homo sapiens, UniProt P14780, DEL216-390); assay: ThermoFluor binding assay with proMMP9(67-444;ΔFnII); conditions: pH 7.0
T2 construct: start methionine (N); made in house; host or cells: E. coli BL21(DE3) RIL
T2 sequence (P14780 with tags, fused parts or gaps DEL216-390): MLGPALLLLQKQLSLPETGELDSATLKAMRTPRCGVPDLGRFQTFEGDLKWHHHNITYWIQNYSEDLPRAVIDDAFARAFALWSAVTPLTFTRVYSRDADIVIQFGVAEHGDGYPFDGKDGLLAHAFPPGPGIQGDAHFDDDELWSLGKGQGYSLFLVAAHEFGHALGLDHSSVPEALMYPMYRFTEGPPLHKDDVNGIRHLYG
Summary of the method: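 Thermal shift binding with 3.5 μM proMMP9(67-444;ΔFnII) and 50 μM 1,8-ANS in 50 mM HEPES pH 7.0, 100 mM NaCl, 2.5 mM MgCl2, 300 μM CaCl2, 0.001% Tween-20, with serially diluted compound. Heated 40 to 90° C at 1° C/min; fluorescence-derived Tm fitted using DSC/ThermoFluor thermodynamic parameters.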

T1 sequence (P14780 20-707 limits assumed): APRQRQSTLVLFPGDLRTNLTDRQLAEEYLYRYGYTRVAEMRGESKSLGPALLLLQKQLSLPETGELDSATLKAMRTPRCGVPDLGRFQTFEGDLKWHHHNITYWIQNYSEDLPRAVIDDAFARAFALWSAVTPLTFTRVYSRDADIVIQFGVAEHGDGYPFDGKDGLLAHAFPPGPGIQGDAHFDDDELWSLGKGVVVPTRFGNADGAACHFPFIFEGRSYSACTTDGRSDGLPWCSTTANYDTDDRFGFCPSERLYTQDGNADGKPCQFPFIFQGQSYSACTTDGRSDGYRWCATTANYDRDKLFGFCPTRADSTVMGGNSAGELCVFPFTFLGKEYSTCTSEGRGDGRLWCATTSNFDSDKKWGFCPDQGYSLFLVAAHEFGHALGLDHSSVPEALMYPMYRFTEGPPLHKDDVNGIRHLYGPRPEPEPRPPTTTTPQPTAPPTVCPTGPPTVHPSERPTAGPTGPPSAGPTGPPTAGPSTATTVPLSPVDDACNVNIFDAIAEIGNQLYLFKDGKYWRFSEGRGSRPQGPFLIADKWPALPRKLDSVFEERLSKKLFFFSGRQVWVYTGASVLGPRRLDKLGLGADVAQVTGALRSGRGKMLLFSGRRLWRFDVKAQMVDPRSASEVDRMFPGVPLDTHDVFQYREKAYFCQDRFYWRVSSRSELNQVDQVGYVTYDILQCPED

**Q.** How did the “Signal (INT*mm^2) Total” value (proMMP9; 3.3 μM, HFL-1, mAb-L51/82, 30 nM elastase, 72 hrs) turn out when `Cc1nc(C)c(-c2csc(Nc3cc(S(N)(=O)=O)ccc3OC(C)C)n2)s1` [Example 64, 3-(2′,4′-Dimethyl-[4,5′]bithiazolyl-2-ylamino)-4-isopropoxy-benzenesulfonamide.HBr] was run?
**A.** The value was 91346 INT*mm^2.

**Q.** What about the inhibition at 0.12 µM (proMMP9; HFL1, 0.12 μM, HFL-1, 80 kD band, pAb-1246) of the same compound?
**A.** The inhibition at 0.12 µM was 0%.

**Q.** What about the inhibition at 0.37 µM (proMMP9; HFL1, 0.37 μM, HFL-1, 80 kD band, pAb-1246) of the same compound?
**A.** The inhibition at 0.37 µM was 73%.

**Q.** And the inhibition at 1.1 µM (proMMP9; HFL1, 1.1 μM, HFL-1, 80 kD band, pAb-1246)?
**A.** Its inhibition at 1.1 µM is 99%.

**Q.** And the inhibition at 3.3 µM (proMMP9; HFL1, 3.3 μM, HFL-1, 80 kD band, pAb-1246)?
**A.** The inhibition at 3.3 µM was 100%.

**Q.** What about the inhibition at 10 µM (proMMP9; HFL1, 10 μM, HFL-1, 80 kD band, pAb-1246) of the same compound?
**A.** The inhibition at 10 µM was 100%.

**Q.** What about the pKd [1] of the same compound?
**A.** Its pKd is 6.59.
